One test concerns the target T1, MycN (Homo sapiens, UniProt P04198).
T1 construct: endogenous in cells; host or cells: SK-N-BE(2)
T1 sequence (P04198 1-464): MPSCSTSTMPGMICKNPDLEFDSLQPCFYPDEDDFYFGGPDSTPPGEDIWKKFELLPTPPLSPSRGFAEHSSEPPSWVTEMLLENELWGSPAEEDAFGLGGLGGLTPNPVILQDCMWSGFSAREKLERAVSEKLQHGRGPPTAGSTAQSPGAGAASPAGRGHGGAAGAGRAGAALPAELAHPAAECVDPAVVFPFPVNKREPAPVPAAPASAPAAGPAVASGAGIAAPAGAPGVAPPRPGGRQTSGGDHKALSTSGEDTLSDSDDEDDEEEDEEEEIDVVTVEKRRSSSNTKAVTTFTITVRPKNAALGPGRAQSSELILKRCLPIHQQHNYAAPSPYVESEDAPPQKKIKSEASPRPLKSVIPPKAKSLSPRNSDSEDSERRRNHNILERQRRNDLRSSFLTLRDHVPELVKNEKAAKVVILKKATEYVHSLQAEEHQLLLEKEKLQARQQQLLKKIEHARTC
As to the kind of experiment: Degradation of MycN protein in SK-N-BE(2) cells, JESS/Western blot of lysates. The settings on record: SKNBE2, 24 h, SKNBE2 cells, 24 h; for Dmax at 1 µM: read-out: % Degradation of MycN (SKNBE2) 24 h, 1 μM; for Dmax at 3 µM: read-out: % Degradation of MycN (SKNBE2) 24 h, 3 μM; for Dmax at 6 µM: read-out: % Degradation of MycN (SKNBE2) 24 h, 6 μM; for Dmax at 0.5 µM: read-out: % Degradation of MycN (SKNBE2) 24 h, 0.5 μM. Type of test: cell-based. Here is the method: (§1) For L363 cells (suspension), 1E6 cells were plated into each well of a 6 well plate. For SK-N-BE(2) cells (adherent), 5E5 cells were plated into each well of a 6 well dish. Cells were cultured for 24 hrs then treated with exemplary compounds at 0.1, 0.5, 1.0, 3.0 and 6.0 mM final assay concentrations plus DMSO control. All compounds were diluted to 10 mM in DMSO. Cells were treated with the compound for 24 hrs, then for both cell types, media containing cells were removed from wells into a 15 ml centrifuge tube, and remaining adherent SK-N-BE(2) cells were also scraped from the wells into the appropriate tubes. Tubes were centrifuged, cells were washed with PBS then re-centrifuged to pellet cells. A RIPA buffer cocktail was added to the cells on ice for 5 mins. Cell lysates were clarified by centrifugation and stored at −80 degrees until required. BCA assay was performed on each lysate to determine the protein concentration.
(§2) Once an appropriate lysate concentration and antibody concentration was determined, samples were screened in the JESS technology (Protein Simple, San Jose, CA—https://www.proteinsimple.com/jess.html).
(§3) Target protein antibodies (n-myc and c-myc) were detected in the chemi-luminescence channel and loading controls (tubulin and GAPDH) were detected using a Near Infra Red (NIR) labeled secondary antibody.
For SK-N-EB2 adherent cells, 5E5 cells in 1.9 mls media were plated into 6 well dishes and incubated for 24 hrs. Exemplary compounds were added (100 ul, 1 in 20 dilution in media) to each well (final assay concentration 6, 3, 1 and […]) together with DMSO control wells and incubated for 24 hrs. Cells were scrapped off the plate, centrifuged, washed with PBS, centrifuged, then a RIPA buffer cocktail added to the cells (100 ul), centrifuged and stored at −80 for later analysis. For L363 suspension cells, 1E6 cells were plated into 24 well dishes (950 ul media) and incubated for 24 hrs. Exemplary compounds were added (50 ul, 1 in 20 dilution in media) to each well (final assay concentration 6, 3, 1 and […]) together with DMSO control wells and incubated for 24 hrs. Cells were aspirated into tubes, centrifuged, washed with PBS, centrifuged, then a RIPA buffer cocktail added to the cells (100 ul), centrifuged and stored at −80 for later analysis.
(§4) For Western blot, a BCA (total protein) assay was run on all samples, these were then run in batches of 5 compounds plus control (DMSO) on each Western blot run—n-myc and c-myc were run in separate experiments in the chemiluminescence channel. Both tubulin and GAPDH were run as loading controls in all lanes in the near infra red channel.
On the technique in general: In western blotting, separated proteins are transferred to a membrane and probed.

The next test deals with T2, MycC (Homo sapiens, UniProt P01106).
T2 construct: endogenous in cells; host or cells: L363
T2 sequence (P01106 whole entry): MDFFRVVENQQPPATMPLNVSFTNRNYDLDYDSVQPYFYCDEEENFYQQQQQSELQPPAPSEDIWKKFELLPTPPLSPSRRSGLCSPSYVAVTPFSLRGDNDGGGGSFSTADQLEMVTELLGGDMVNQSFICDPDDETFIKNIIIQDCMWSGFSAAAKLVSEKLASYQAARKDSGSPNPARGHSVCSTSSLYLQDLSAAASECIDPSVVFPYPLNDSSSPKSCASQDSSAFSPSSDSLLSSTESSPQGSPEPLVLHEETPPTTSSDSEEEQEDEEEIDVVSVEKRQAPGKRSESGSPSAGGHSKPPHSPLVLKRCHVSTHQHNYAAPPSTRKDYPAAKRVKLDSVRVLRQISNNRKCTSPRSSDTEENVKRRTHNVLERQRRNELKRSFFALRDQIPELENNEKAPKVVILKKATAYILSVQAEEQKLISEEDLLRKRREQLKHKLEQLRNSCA
Description: Degradation of MycC protein in L363 cells, JESS/Western blot of lysates. Type of test: cell-based. The following applies: L-363, 24 h, L-363 cells, 24 h; for Dmax at 0.5 µM: read-out: % Degradation of MycC (L-363) 24 h, 0.5 μM; for Dmax at 1 µM: read-out: % Degradation of MycC (L-363) 24 h, 1 μM; for Dmax at 3 µM: read-out: % Degradation of MycC (L-363) 24 h, 3 μM; for Dmax at 6 µM: read-out: % Degradation of MycC (L-363) 24 h, 6 μM. The protocol: as §1, with “Cells were cultured for 24 hrs then treated with exemplary compounds at 0.1, 0.5, 1.0, 3.0 and 6.0 mM final assay concentrations plus DMSO control.” left out
as §2, §3
For SK-N-EB2 adherent cells, 5E5 cells in 1.9 mls media were plated into 6 well dishes and incubated for 24 hrs. […] Cells were scrapped off the plate, centrifuged, washed with PBS, centrifuged, then a RIPA buffer cocktail added to the cells (100 ul), centrifuged and stored at −80 for later analysis. For L363 suspension cells, 1E6 cells were plated into […] (950 ul media) and incubated for 24 hrs. […] Cells were aspirated into tubes, centrifuged, washed with PBS, centrifuged, then a RIPA buffer cocktail added to the cells (100 ul), centrifuged and stored at −80 for later analysis.
as §4

Molecules are shown by their SMILES.

Turning to `NC[C@@H]1CN(c2nccc(Nc3cc(C4CCCC4)[nH]n3)n2)C[C@@H]1F` [Compound 123-1, 2-[(3R,4R)-3-(Aminomethyl)-4-fluoro-pyrrolidin-1-yl]-N-(5-cyclopentyl-1H-pyrazol-3-yl)pyrimidin-4-amine], at MycN, the Dmax at 1 µM is under 20%, the Dmax at 3 µM lay within 50 to 79% and the Dmax at 6 µM lay within 80 to 100%. In addition, at MycC, the Dmax at 0.5 µM is under 20%, the Dmax at 1 µM was in the range of 20 to 49%, the Dmax at 3 µM lay within 80 to 100% and the Dmax at 6 µM fell in the range of 80 to 100%.

For `CN1CC2(CCN(c3nccc(Nc4cc(C5CCCC5)[nH]n4)n3)C2)C1` [Compound 85, N-(5-cyclopentyl-1H-pyrazol-3-yl)-2-(2-methyl-2,6-diazaspiro[3.4]octan-6-yl)pyrimidin-4-amine], on MycN, the Dmax at 0.5 µM is under 20%, the Dmax at 1 µM was under 20%, the Dmax at 3 µM is 20 to 49% and the Dmax at 6 µM fell in the range of 50 to 79%. At MycC, the Dmax at 0.5 µM was under 20% and the Dmax at 6 µM was under 20%.

For the compound `CN1CC2(C1)CN(c1nccc(Nc3cc(C4CCCC4)[nH]n3)n1)C2` [Compound 84, N-(5-cyclopentyl-1H-pyrazol-3-yl)-2-(6-methyl-2,6-diazaspiro[3.3]heptan-2-yl)pyrimidin-4-amine], the Dmax at 6 µM on MycN was 20 to 49%. Moreover, at MycC, the Dmax at 0.5 µM was 20 to 49%, the Dmax at 1 µM was in the range of 20 to 49%, the Dmax at 3 µM was under 20% and the Dmax at 6 µM is 20 to 49%.

`NC[C@@H]1CN(c2nccc(Nc3cc(C4CC4)[nH]n3)n2)C[C@@H]1F` [Compound 122-1, 2-[(3R,4R)-3-(Aminomethyl)-4-fluoro-pyrrolidin-1-yl]-N-(5-cyclopropyl-1H-pyrazol-3-yl)pyrimidin-4-amine]: at MycN, the Dmax at 0.5 µM fell in the range of 20 to 49%, the Dmax at 1 µM lay in the range of 20 to 49%, the Dmax at 3 µM lay within 20 to 49% and the Dmax at 6 µM fell in the range of 80 to 100%. Moreover, on MycC, the Dmax at 0.5 µM lay in the range of 20 to 49%, the Dmax at 1 µM lay in the range of 50 to 79%, the Dmax at 3 µM fell in the range of 80 to 100% and the Dmax at 6 µM fell in the range of 80 to 100%.

In the case of `CS(=O)(=O)CCNCC12CC(C1)N(c1nccc(Nc3cc(C4CCCC4)[nH]n3)n1)C2` [Compound 68, N-(5-Cyclopentyl-1H-pyrazol-3-yl)-2-[4-[(2-methylsulfonylethylamino)methyl]-2-azabicyclo[2.1.1]hexan-2-yl]pyrimidin-4-amine], at MycN, the Dmax at 0.5 µM is under 20%, the Dmax at 1 µM was under 20%, the Dmax at 3 µM was 80 to 100% and the Dmax at 6 µM fell in the range of 80 to 100%. For the same compound, on MycC, the Dmax at 0.5 µM is under 20%, the Dmax at 1 µM is under 20%, the Dmax at 3 µM lay within 80 to 100% and the Dmax at 6 µM was in the range of 80 to 100%.

Take `NC[C@H]1CCCN(c2nccc(Nc3cc(C4CC4)[nH]n3)n2)C1` [Compound 29, 2-[(3R)-3-(Aminomethyl)-1-piperidyl]-N-(5-cyclopropyl-1H-pyrazol-3-yl)pyrimidin-4-amine]: on MycN, the Dmax at 0.5 µM was in the range of 80 to 100%, the Dmax at 1 µM lay within 80 to 100%, the Dmax at 3 µM lay within 80 to 100% and the Dmax at 6 µM was in the range of 80 to 100%. Also, at MycC, the Dmax at 0.5 µM fell in the range of 20 to 49%, the Dmax at 1 µM was in the range of 50 to 79%, the Dmax at 3 µM fell in the range of 80 to 100% and the Dmax at 6 µM fell in the range of 80 to 100%.

For the compound `c1cc(Nc2cc(C3CC3)[nH]n2)nc(N2C[C@H]3CN[C@H]3C2)n1` [Compound 53, N-(5-Cyclopropyl-1H-pyrazol-3-yl)-2-[(1R,5R)-3,6-diazabicyclo[3.2.0]heptan-3-yl]pyrimidin-4-amine], the Dmax at 6 µM on MycN is under 20%. Besides, on MycC, the Dmax at 3 µM is 20 to 49% and the Dmax at 6 µM is under 20%.

Regarding `NC[C@H]1CCN(c2nccc(Nc3cc(C4CC4)[nH]n3)n2)C1` [Compound 11, (R)-2-(3-(Aminomethyl)pyrrolidin-1-yl)-N-(5-cyclopropyl-1H-pyrazol-3-yl)pyrimidin-4-amine], on MycN, the Dmax at 0.5 µM is under 20%, the Dmax at 1 µM fell in the range of 80 to 100%, the Dmax at 3 µM lay within 80 to 100% and the Dmax at 6 µM lay within 80 to 100%. In addition, on MycC, the Dmax at 3 µM is under 20%.

With `CN1CC(C2CCN(c3nccc(Nc4cc(C5CC5)[nH]n4)n3)C2)C1` (stereo not shown) [Compound 38, N-(5-Cyclopropyl-1H-pyrazol-3-yl)-2-[3-(1-methylazetidin-3-yl)pyrrolidin-1-yl]pyrimidin-4-amine], at MycN, the Dmax at 0.5 µM fell in the range of 20 to 49%, the Dmax at 1 µM was 20 to 49%, the Dmax at 3 µM lay in the range of 20 to 49% and the Dmax at 6 µM fell in the range of 50 to 79%. On MycC, the Dmax at 0.5 µM is under 20%, the Dmax at 1 µM is under 20%, the Dmax at 3 µM is under 20% and the Dmax at 6 µM was under 20%.

In the case of `NC[C@@H]1CN(c2nccc(Nc3cc(C4CCCC4)[nH]n3)n2)CCO1` [Compound 116, 2-[(2R)-2-(Aminomethyl)morpholin-4-yl]-N-(5-cyclopentyl-1H-pyrazol-3-yl)pyrimidin-4-amine], on MycN, the Dmax at 0.5 µM is under 20%, the Dmax at 1 µM is under 20%, the Dmax at 3 µM lay in the range of 80 to 100% and the Dmax at 6 µM was 80 to 100%. Moreover, on MycC, the Dmax at 1 µM was under 20%, the Dmax at 3 µM was in the range of 80 to 100% and the Dmax at 6 µM is 80 to 100%.

As for `c1cc(Nc2cc(C3CCCC3)[nH]n2)nc(N2CC3(CN4CCOCC4)CC2C3)n1` [Compound 72, N-(5-Cyclopentyl-1H-pyrazol-3-yl)-2-[4-(morpholinomethyl)-2-azabicyclo[2.1.1]hexan-2-yl]pyrimidin-4-amine], at MycN, the Dmax at 0.5 µM is 20 to 49%, the Dmax at 1 µM fell in the range of 20 to 49%, the Dmax at 3 µM is 50 to 79% and the Dmax at 6 µM was in the range of 80 to 100%. For the same compound, the Dmax at 6 µM at MycC fell in the range of 80 to 100%.

Values taken from patent US20250170130A1, “MODULATORS OF MYC FAMILY PROTO-ONCOGENE PROTEIN” (Nalo Therapeutics, priority 2022, published 2025).
